Biological target: T1, CRTH2 (DP2) (Homo sapiens, UniProt Q9Y5Y4)
T1 construct: host or cells: CHO cells
T1 sequence (Q9Y5Y4 1-395): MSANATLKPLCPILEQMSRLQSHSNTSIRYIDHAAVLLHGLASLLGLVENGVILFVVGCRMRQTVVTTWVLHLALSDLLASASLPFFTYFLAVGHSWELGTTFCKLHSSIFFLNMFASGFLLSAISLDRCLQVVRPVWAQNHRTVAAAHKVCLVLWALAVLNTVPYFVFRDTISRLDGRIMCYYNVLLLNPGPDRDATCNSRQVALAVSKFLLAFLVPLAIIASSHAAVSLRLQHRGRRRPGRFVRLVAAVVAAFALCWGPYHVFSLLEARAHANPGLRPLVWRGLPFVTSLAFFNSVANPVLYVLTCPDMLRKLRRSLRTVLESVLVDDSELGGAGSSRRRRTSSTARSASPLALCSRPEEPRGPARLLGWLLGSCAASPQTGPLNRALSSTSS
Assay: Radioligand binding Scintillation Proximity Assay ([3H]PGD2, hCRTH2-CHO cell membranes)
Details: 1.5 nM [3H]PGD2, hCRTH2-CHO cell membranes, SPA
Procedure: Adherent CHO cells expressing hCRTH2 (Euroscreen, Belgium) were cultured in 225 cm^2 cell culture flasks (Corning, USA) in 30 ml of medium. After two rinses of phosphate buffered saline (PBS), cells were harvested in 10 ml of PBS containing 1 mM EDTA, centrifuged at 500×g for 5 min at 4° C. and frozen at −80° C. The pellet was re-suspended in 50 mM Tris-HCl, pH 7.4, 2 mM EDTA, 250 mM Sucrose, containing protease inhibitor cocktail tablets, (Complete EDTA-free, Roche, Germany) and incubated 30 min at 4° C. Cells were disrupted by nitrogen cavitation (Parr Instruments, USA) at 4° C. (800 p.s.i. for 30 min), and centrifuged at 500×g for 10 min at 4° C. Pellet containing nuclei and cellular debris was discarded and supernatant was centrifuged 60 min at 4° C. at 45000×g. Membrane pellet was re-suspended in storage buffer (10 mM HEPES/KOH pH 7.4, 1 mM EDTA, 250 mM sucrose, protease inhibitor cocktail tablets) using Dounce homogenization and frozen in liquid nitrogen, and stored at 80° C.
Non-specific binding was determined in the presence of 10 μM PGD2 (Cayman, USA). Competing Compounds of Formula (I) were diluted in dimethylsulphoxide so that the total volume of dimethylsulfoxide was kept constant at 1% dimethylsulphoxide (Me2SO). Serial dilutions of […] were prepared and 10 μl each of the compounds of Formula (I) stock solutions were added to the binding assay reagents and incubated for 90 min with agitation at room temperature.

| IC50 [nM] | Compound |
| --- | --- |
| 2.9 | Cc1ccc(CCC(=O)N(Cc2ccc(S(C)(=O)=O)cc2)c2cc(F)cc(-c3nnn[nH]3)c2)cc1 [Example 107, N-[3-fluoro-5-(1H-tetrazol-5-yl)phenyl]-3-(4-methylphenyl)-N-[4-(methylsulfonyl)benzyl]propanamide] |
| 75 | CCC(=O)N(Cc1ccc(S(C)(=O)=O)cc1)c1cccc(-c2nnn[nH]2)c1 [Example 65, N-[4-(methylsulfonyl)benzyl]-N-[3-(1H-tetrazol-5-yl)phenyl]propanamide] |
| 13 | CCC(=O)N(Cc1ccc2c(c1)OC(F)(F)O2)c1cc(Cl)cc(-c2nnn[nH]2)c1 [Example 103, N-[3-chloro-5-(1H-tetrazol-5-yl)phenyl]-N-[(2,2-difluoro-1,3-benzodioxol-5-yl)methyl]propanamide] |
| 31 | CCC(=O)N(Cc1ccc(-c2ccccc2Cl)cc1)c1cc(F)cc(-c2nnn[nH]2)c1 [Example 98, N-[(2′-chlorobiphenyl-4-yl)methyl]-N-[3-fluoro-5-(1H-tetrazol-5-yl)phenyl]propanamide] |
| 1690 | CCC(=O)N(Cc1cccc(F)c1)c1cccc(-c2nnn[nH]2)c1 [Example 32, N-(3-fluorobenzyl)-N-[3-(1H-tetrazol-5-yl)phenyl]propanamide] |
| 129 | CCC(=O)N(Cc1ccc(C(F)(F)F)cc1)c1cccc(-c2nnn[nH]2)c1 [Example 27, N-[3-(1H-tetrazol-5-yl)phenyl]-N-[4-(trifluoromethyl)benzyl]propanamide] |
| 19 | CC(C)C(=O)N(Cc1ccc(S(C)(=O)=O)cc1)c1cc(F)cc(-c2nnn[nH]2)c1 [Example 117, N-[3-fluoro-5-(1H-tetrazol-5-yl)phenyl]-2-methyl-N-[4-(methylsulfonyl)benzyl]propanamide] |
| 5.6 | CCC(=O)N(Cc1ccc(S(=O)(=O)C(F)(F)F)cc1)c1cc(F)cc(-c2nnn[nH]2)c1 [Example 95, N-[3-fluoro-5-(1H-tetrazol-5-yl)phenyl]-N-{4-[(trifluoromethyl)sulfonyl]benzyl}propanamide] |
| 588 | CCCCC(=O)N(Cc1cccs1)c1cccc(-c2nnn[nH]2)c1 [Example 16, N-[3-(1H-tetrazol-5-yl)phenyl]-N-(2-thienylmethyl)pentanamide] |
| 16 | CCOCC(=O)N(Cc1ccc(OC(F)(F)F)cc1)c1cc(Cl)cc(-c2nnn[nH]2)c1 [Example 67, N-[3-chloro-5-(1H-tetrazol-5-yl)phenyl]-2-ethoxy-N-[4-(trifluoromethoxy)benzyl]acetamide] |
| 145 | CCC(=O)N(Cc1ccc(-c2cccc(S(=O)(=O)N3CCOCC3)c2)cc1)c1cc(F)cc(-c2nnn[nH]2)c1 [Example 91, N-[3-fluoro-5-(1H-tetrazol-5-yl)phenyl]-N-{[3′-(morpholin-4-ylsulfonyl)biphenyl-4-yl]methyl}propanamide] |
| 769 | CCC(=O)N(Cc1cccc(-c2cnoc2)c1)c1cccc(-c2nnn[nH]2)c1 [Example 62, N-(3-isoxazol-4-ylbenzyl)-N-[3-(1H-tetrazol-5-yl)phenyl]propanamide] |
| 25 | CCC(=O)N(Cc1ccc(O)cc1)c1cc(F)cc(-c2nnn[nH]2)c1 [Example 114, N-[3-fluoro-5-(1H-tetrazol-5-yl)phenyl]-N-(4-hydroxybenzyl)propanamide] |
| 268 | CCC(=O)N(Cc1ccc(OC)cc1)c1cccc(-c2nnn[nH]2)c1 [Example 26, N-(4-methoxybenzyl)-N-[3-(1H-tetrazol-5-yl)phenyl]propanamide] |
| 25 | CCC(=O)N(Cc1cccc(-c2ccncc2)c1)c1cc(F)cc(-c2nnn[nH]2)c1 [Example 83, N-[3-fluoro-5-(1H-tetrazol-5-yl)phenyl]-N-(3-pyridin-4-ylbenzyl)propanamide] |
| 1300 | CCC(=O)N(Cc1cccc(C#CC(C)(C)C)c1)c1cccc(-c2nnn[nH]2)c1 [Example 50, N-[3-(3,3-dimethylbut-1-yn-1-yl)benzyl]-N-[3-(1H-tetrazol-5-yl)phenyl]propanamide] |
| 5.2 | CCCCC(=O)N(Cc1cccc(OC(F)(F)F)c1)c1cc(F)cc(-c2nnn[nH]2)c1 [Example 29, N-[3-fluoro-5-(1H-tetrazol-5-yl)phenyl]-N-[3-(trifluoromethoxy)benzyl]pentanamide] |
| 18 | CCC(=O)N(Cc1ccc(Cl)c(OC(F)(F)F)c1)c1cc(F)cc(-c2nnn[nH]2)c1 [Example 76, N-[4-chloro-3-(trifluoromethoxy)benzyl]-N-[3-fluoro-5-(1H-tetrazol-5-yl)phenyl]propanamide] |

| IC50 [nM] | Compound |
| --- | --- |
| 1540 | CCC(=O)N(Cc1ccc(F)cc1)c1cccc(-c2nnn[nH]2)c1 [Example 31, N-(4-fluorobenzyl)-N-[3-(1H-tetrazol-5-yl)phenyl]propanamide] |
| 305 | CCC(=O)N(Cc1cccc(-c2c(C)noc2C)c1)c1cccc(-c2nnn[nH]2)c1 [Example 61, N-[3-(3,5-dimethylisoxazol-4-yl)benzyl]-N-[3-(1H-tetrazol-5-yl)phenyl]propanamide] |
| 54 | CCCCC(=O)N(Cc1ccc2c(c1)OCCO2)c1cc(-c2nnn[nH]2)c(F)cc1F [Example 10, N-[2,4-difluoro-5-(1H-tetrazol-5-yl)phenyl]-N-(2,3-dihydro-1,4-benzodioxin-6-ylmethyl)pentanamide] |
| 169 | CCCCC(=O)N(Cc1ccc(O)cc1)c1cccc(-c2nnn[nH]2)c1 [Example 74, N-(4-hydroxybenzyl)-N-[3-(1H-tetrazol-5-yl)phenyl]pentanamide] |
| 2100 | CCC(=O)N(Cc1ccsc1)c1cccc(-c2nnn[nH]2)c1 [Example 18, N-[3-(1H-tetrazol-5-yl)phenyl]-N-(3-thienylmethyl)propanamide] |
| 160 | CCC(=O)N(Cc1ccc(-c2cccc(S(=O)(=O)NCCO)c2)cc1)c1cc(F)cc(-c2nnn[nH]2)c1 [Example 92, N-[3-fluoro-5-(1H-tetrazol-5-yl)phenyl]-N-[(3′-{[(2-hydroxyethyl)amino]sulfonyl}biphenyl-4-yl)methyl]propanamide] |
| 973 | CCC(=O)N(Cc1ccc(-c2cc[nH]n2)cc1)c1cccc(-c2nnn[nH]2)c1 [Example 66, N-[4-(1H-pyrazol-3-yl)benzyl]-N-[3-(1H-tetrazol-5-yl)phenyl]propanamide] |
| 330 | CCC(=O)N(Cc1cccc(-c2ccncc2)c1)c1cccc(-c2nnn[nH]2)c1 [Example 96, N-(3-pyridin-4-ylbenzyl)-N-[3-(1H-tetrazol-5-yl)phenyl]propanamide] |
| 2.6 | CCCCC(=O)N(Cc1ccc(C(F)(F)F)cc1)c1cc(F)cc(-c2nnn[nH]2)c1 [Example 60, N-[3-fluoro-5-(1H-tetrazol-5-yl)phenyl]-N-[4-(trifluoromethyl)benzyl]pentanamide] |
| 125 | CCC(=O)N(Cc1ccc(-c2cccc(S(=O)(=O)N(C)C)c2)cc1)c1cc(F)cc(-c2nnn[nH]2)c1 [Example 93, N-({3′-[(dimethylamino)sulfonyl]biphenyl-4-yl}methyl)-N-[3-fluoro-5-(1H-tetrazol-5-yl)phenyl]propanamide] |
| 19 | CCC(=O)N(Cc1cccc(-c2c(C)noc2C)c1)c1cc(F)cc(-c2nnn[nH]2)c1 [Example 85, N-[3-(3,5-dimethylisoxazol-4-yl)benzyl]-N-[3-fluoro-5-(1H-tetrazol-5-yl)phenyl]propanamide] |
| 9.3 | CCC(=O)N(Cc1ccc(OC(F)(F)F)cc1)c1cc(F)cc(-c2nnn[nH]2)c1 [Example 36, N-[3-fluoro-5-(1H-tetrazol-5-yl)phenyl]-N-[4-(trifluoromethoxy)benzyl]propanamide] |
| 15 | CCCC(=O)N(Cc1ccc2c(c1)OCCO2)c1cccc(-c2nnn[nH]2)c1 [Example 19, N-(2,3-dihydro-1,4-benzodioxin-6-ylmethyl)-N-[3-(1H-tetrazol-5-yl)phenyl]butanamide] |
| 403 | CCC(=O)N(Cc1cccc(-c2cccnc2)c1)c1cccc(-c2nnn[nH]2)c1 [Example 64, N-(3-pyridin-3-ylbenzyl)-N-[3-(1H-tetrazol-5-yl)phenyl]propanamide] |
| 6750 | CCC(=O)N(Cc1cccnc1)c1cccc(-c2nnn[nH]2)c1 [Example 51, N-(pyridin-3-ylmethyl)-N-[3-(1H-tetrazol-5-yl)phenyl]propanamide] |
| 61 | CCCCC(=O)N(Cc1ccc(OC)cc1)c1cccc(-c2nnn[nH]2)c1 [Example 14, N-(4-methoxybenzyl)-N-[3-(1H-tetrazol-5-yl)phenyl]pentanamide] |
| 175 | C#Cc1cccc(CN(C(C)=O)c2cc(-c3nnn[nH]3)ccc2F)c1 [Example 2, N-(3-ethynylbenzyl)-N-[2-fluoro-5-(1H-tetrazol-5-yl)phenyl]acetamide] |

— patent publication US20120115869A1, “TETRAZOLE DERIVATIVES” (MERCK SERONO S.A., priority 2009, published 2012)
